Data on 17 compounds can be found in PMC11900971 (International Journal of Molecular Sciences, 2025).

Read-outs that look alike come from different tables or passages of the source.

For assay [1], the system named is Plasmodium falciparum, strain NF54, erythrocytic stages.
In assay [2] the test system is L6 cells (rat skeletal myoblasts). The conditions noted are these: read-out: Cyt L6 IC50.
Assay [3] has as its system Trypanosoma brucei rhodesiense, STIB 900 strain, bloodstream forms.
Assay [4] has as its system Plasmodium falciparum, strain NF54, erythrocytic stages. Nature of the assay: microbe, parasite or virus in culture.
Assay [5] has as its system L6 cells (rat skeletal myoblasts). As to the kind of experiment: cells. Conditions: L6, read-out: Cyt L6 IC50.
The subject of assay [6] is Trypanosoma brucei rhodesiense, STIB 900 strain, bloodstream forms. Nature of the assay: microbe, parasite or virus in culture.
[7] abbreviates: NF54, read-out: P. falc. pIC50 (converted).
Where [8] appears, read: read-out: T. b. rhod. pIC50 (converted).

As to “2-Methyl-2-{[4-(4,4,4-trifluorobutanamido)phenyl]methyl}-1,4-naphthoquinone [Compound 2n]”, the “P. falc. pIC50” value in assay [1] (pIC50 = -log10 IC50 (M), P. falciparum NF54) worked out at 6.80. The “SI (P. falc.)” value in assay [1] (ratio IC50 in L6 cells/IC50 in P. falciparum NF54) was found to be 92. Further, the IC50 in assay [1] (read-out: P. falc. IC50, P. falciparum strain NF54, erythrocytic stages) was 159 nM; in assay [2], 14700 nM; in assay [3] (read-out: T. b. rhod. IC50) it was 72200 nM. The “T. b. rhod. pIC50” value in assay [3] came to 4.14. Moreover, in assay [3] (ratio IC50 in L6 cells/IC50 in T. b. rhodesiense STIB900), the “SI (T. b. rhod.)” value is recorded as 0.

For the compound `CC(=O)Nc1cccc(CC2=C(C)C(=O)c3ccccc3C2=O)c1` [Compound 2k, 2-[(3-Acetamidophenyl)methyl]-3-methyl-1,4-naphthoquinone], the IC50 is 758 nM in assay [4] (NF54, read-out: P. falc. IC50); 759 nM in assay [4] (setting [7]); 16600 nM in assay [5]; 39500 nM in assay [6] (read-out: T. b. rhod. IC50); 39800 nM in assay [6] (setting [8]).

On to `CC1=C(Cc2ccc(NC(=O)C(F)(F)F)cc2)C(=O)c2ccccc2C1=O` [Compound 2l, 2-Methyl-3-{[4-(2,2,2-trifluoroacetamido)phenyl]methyl}-1,4-naphthoquinone], for which the IC50 in assay [4] (NF54, read-out: P. falc. IC50) was 147 nM; in assay [4] (setting [7]), 148 nM; in assay [5] it was 16100 nM; in assay [6] (read-out: T. b. rhod. IC50) it was 23400 nM; in assay [6] (setting [8]), 23400 nM.

For the compound `CC1=C(Cc2cccc(NC(=O)C(F)(F)F)c2)C(=O)c2ccccc2C1=O` [Compound 2m, 2-Methyl-3-{[3-(2,2,2-trifluoroacetamido)phenyl]methyl}-1,4-naphthoquinone], the IC50 in assay [4] (NF54, read-out: P. falc. IC50) was 321 nM; in assay [4] (setting [7]), 324 nM; in assay [5], 13700 nM; in assay [6] (read-out: T. b. rhod. IC50), 24300 nM; in assay [6] (setting [8]), 24000 nM.

`CC1=C(Cc2cccc(NC(=O)CCC(F)(F)F)c2)C(=O)c2ccccc2C1=O` [Compound 2o, 2-Methyl-3-{[3-(4,4,4-trifluorobutanamido)phenyl]methyl}-1,4-naphthoquinone]: the IC50 in assay [4] (NF54, read-out: P. falc. IC50) was 670 nM; in assay [4] (setting [7]), 631 nM; in assay [5], 87500 nM; in assay [6] (read-out: T. b. rhod. IC50), 50800 nM; in assay [6] (setting [8]) it was 51300 nM. The “P. falc. pIC50” value in assay [1] stood at 6.17.

Regarding `CC1=C(Cc2ccc(F)cc2)C(=O)c2ccccc2C1=O` [Compound 2p, 2-[(4-Fluorophenyl)methyl]-3-methyl-1,4-naphthoquinone], the IC50 in assay [4] (NF54, read-out: P. falc. IC50) was 43 nM; in assay [4] (setting [7]), 42.7 nM; in assay [5], 51100 nM; in assay [6] (read-out: T. b. rhod. IC50), 33200 nM; in assay [6] (setting [8]), 33100 nM.

Consider `CC1=C(Cc2ccc(OC(F)(F)F)cc2)C(=O)c2ccccc2C1=O` [Compound 2q, 2-Methyl-3-{[4-(trifluoromethoxy)phenyl]methyl}-1,4-naphthoquinone], for which the IC50 in assay [4] (NF54, read-out: P. falc. IC50) was 29 nM; in assay [4] (setting [7]) it was 28.8 nM; in assay [5], 123000 nM; in assay [6] (read-out: T. b. rhod. IC50), 81600 nM; in assay [6] (setting [8]), 81300 nM.

For the compound `CC1=C(Cc2cccc(OC(F)(F)F)c2)C(=O)c2ccccc2C1=O` [Compound 2r, 2-Methyl-3-{[3-(trifluoromethoxy)phenyl]methyl}-1,4-naphthoquinone], the IC50 is 49 nM in assay [4] (NF54, read-out: P. falc. IC50); 49 nM in assay [4] (setting [7]); 80500 nM in assay [5]; 26100 nM in assay [6] (read-out: T. b. rhod. IC50); 26300 nM in assay [6] (setting [8]).

For `CC1=C(Cc2cc(OC(F)(F)F)ccc2F)C(=O)c2ccccc2C1=O` [Compound 2s, 2-{[2-Fluoro-5-(trifluoromethoxy)phenyl]methyl}-3-methyl-1,4-naphthoquinone], the IC50 in assay [4] (NF54, read-out: P. falc. IC50) is 38 nM; in assay [4] (setting [7]), 38 nM; in assay [5], 83200 nM; in assay [6] (read-out: T. b. rhod. IC50), 75800 nM; in assay [6] (setting [8]) it was 75900 nM.

Regarding `O=C1C=C(Cc2ccccc2)C(=O)c2ccccc21` [Compound 4a, 2-Benzyl-1,4-naphthoquinone], the IC50 in assay [4] (NF54, read-out: P. falc. IC50) was 2760 nM; in assay [4] (setting [7]), 2750 nM; in assay [5], 61600 nM; in assay [6] (read-out: T. b. rhod. IC50), 318 nM; in assay [6] (setting [8]), 316 nM.

`O=C1C=C(Cc2ccc(C(F)(F)F)cc2)C(=O)c2ccccc21` [Compound 4b, 2-{[4-(Trifluoromethyl)phenyl]methyl}-1,4-naphthoquinone]: the IC50 in assay [4] (NF54, read-out: P. falc. IC50) was 686 nM; in assay [4] (setting [7]), 692 nM; in assay [5], 19200 nM; in assay [6] (read-out: T. b. rhod. IC50) it was 503 nM; in assay [6] (setting [8]), 501 nM.

In the case of `O=C1C=C(Cc2ccc(C(F)(F)F)cc2F)C(=O)c2ccccc21` [Compound 4c, 2-{[2-Fluoro-4-(trifluoromethyl)phenyl]methyl}-1,4-naphthoquinone], the IC50 in assay [4] (NF54, read-out: P. falc. IC50) was 1760 nM; in assay [4] (setting [7]), 1780 nM; in assay [5], 37000 nM; in assay [6] (read-out: T. b. rhod. IC50), 790 nM; in assay [6] (setting [8]) it was 794 nM.

For the compound `O=C1C=C(Cc2ccc(F)cc2C(F)(F)F)C(=O)c2ccccc21` [Compound 4d, 2-{[4-Fluoro-2-(trifluoromethyl)phenyl]methyl}-1,4-naphthoquinone], the IC50 is 2310 nM in assay [4] (NF54, read-out: P. falc. IC50); 2290 nM in assay [4] (setting [7]); 38400 nM in assay [5]; 1740 nM in assay [6] (read-out: T. b. rhod. IC50); 1740 nM in assay [6] (setting [8]).

Consider `O=C1C=C(Cc2ccc(Cl)nc2)C(=O)c2ccccc21` [Compound 4e, 2-[(6-Chloropyridin-3-yl)methyl]-1,4-naphthoquinone], for which the IC50 in assay [4] (NF54, read-out: P. falc. IC50) was 2010 nM; in assay [4] (setting [7]), 2000 nM; in assay [5], 3940 nM; in assay [6] (read-out: T. b. rhod. IC50), 522 nM; in assay [6] (setting [8]), 525 nM.

As for `O=C1C(Cc2ccccc2)=C(C(F)(F)F)C(=O)c2ccccc21` [Compound 5a, 2-Benzyl-3-(trifluoromethyl)-1,4-naphthoquinone], the IC50 in assay [4] (NF54, read-out: P. falc. IC50) was 3800 nM; in assay [4] (setting [7]), 3800 nM; in assay [5], 10800 nM; in assay [6] (read-out: T. b. rhod. IC50) it was 1880 nM; in assay [6] (setting [8]), 1910 nM.

In the case of `O=C1C(Cc2ccc(C(F)(F)F)cc2)=C(C(F)(F)F)C(=O)c2ccccc21` [Compound 5b, 2-(Trifluoromethyl)-3-{[4-(trifluoromethyl)phenyl]methyl}-1,4-naphthoquinone], the IC50 in assay [4] (NF54, read-out: P. falc. IC50) is 1460 nM; in assay [4] (setting [7]), 1450 nM; in assay [5], 2000 nM; in assay [6] (read-out: T. b. rhod. IC50), 1960 nM; in assay [6] (setting [8]) it was 1950 nM.

With `O=C1C(Cc2ccc(C(F)(F)F)cc2F)=C(C(F)(F)F)C(=O)c2ccccc21` [Compound 5c, 2-{[2-Fluoro-4-(trifluoromethyl)phenyl]methyl}-3-(trifluoromethyl)-1,4-naphthoquinone], the IC50 in assay [4] (NF54, read-out: P. falc. IC50) was 2310 nM; in assay [4] (setting [7]), 2290 nM; in assay [5] it was 805 nM; in assay [6] (read-out: T. b. rhod. IC50), 9410 nM; in assay [6] (setting [8]), 9330 nM.
